Reference: patent US20110294843A1, “ADMINISTRATION SCHEME OF POLAR OPIOID METABOLITES FOR POST-OPERATIVE PAIN MANAGEMENT” (PAION UK Limited, priority 2008, published 2011)

Key:
[1] = test system: patients with pain treatment after surgery; assay: Meta analysis of four clinical studies with M6G pain treatment after surgery
Text: The four studies M6G001, M6G012, M6G015 and M6G022 are described in the following.
The following variables were included in the meta analysis:
Nausea (none, mild, moderate, severe)
Sedation (none, mild, moderate, severe)
Pain (none, mild, moderate, severe)

[2] = test system: patients following major abdominal surgery; assay: M6G022 study: analgesic efficacy and tolerability of M6G and morphine following major abdominal surgery
Protocol: Pain relief, nausea and emesis were recorded for 24 to 48 hours after start of the patient controlled analgesia.
The study site personnel (with the exception of the pharmacy); representatives of the sponsoring company; and the organisation involved in monitoring, data management, or other aspects of the study were blinded to the study treatment. The use of midazolam, temazepam, zopiclone or other short-acting pre-operative anxiolytics was allowed. All patients received a standardised general anaesthetic consisting of propofol induction, with either isoflurane or sevoflurane maintenance. These inhalational agents are associated with a similar risk of PONV. Nitrous oxide was not allowed because of its emetic effects, and the risk of an imbalance in its use. An initial bolus of 1-3 μg/kg of fentanyl or 0.1-0.3 μg/kg of sufentanyl followed by further doses as required, was used for pre- and peri-operative analgesia. Post-operative analgesia was provided by the study drug.
The investigator could administer up to 5 ml of PCA study drug, on no more than two occasions in each 24 hour post-operative period, as rescue medication if the patient was in uncontrolled pain. […] The patients stayed on PCA for a minimum of 24 hours following surgery, but could continue up to 48 hours if clinically indicated.
No prophylactic antiemetic was given, although iv ondansetron (4 mg/2 ml) was available if the patient experienced severe nausea, or immediately following emesis. If this was ineffective further doses of ondansetron; or other agents such as cyclizine, prochlorperazine or perphenazine; were allowed.
Pain intensity at rest was assessed by the patients using the VRS-11 scale at baseline, 15, 30 and 45 minutes and 1, 2, 4, 6, 9, 12, 15, 18, 21 and 24 hours after the start of PCA. A numerical scale was chosen because of the practical difficulty for post-operative patients of completing a visual analogue scale. If the patient remained on PCA after 24 hours, the pain scores were recorded every 8 hours up to 48 hours. In addition, at the end of the study the patients and observers were asked to assess the acceptability of their pain relief over the entire study using a 5 point rating global scale ranging from very poor (1) to excellent (5). […] The total consumption of study drugs was calculated.
Emesis risk factors of female gender; history of motion sickness or PONV; or smoking status were recorded at screening. Post-operative nausea was assessed by the patient using a 4 point ordinal scale (none, mild, moderate, severe) and occurrence of vomiting or dry retching recorded (yes/no; and if yes, the number of episodes) pre-operatively (Day −1), at baseline, and at 1, 2, 4, 6, 9, 12, 15, 18, 21, 24, 32, 40 and 48 hours after administration of the test analgesic. Nausea and vomiting were also combined in a single scoring system (postoperative nausea & vomiting, PONV), with an episode of vomiting or dry retching being scored as a 3 (severe) on the nausea scale.
Sedation was assessed using a combination of a binary question (sleepy, yes or no) and a 3 point ordinal scale (mild, moderate, severe) if the patient was sedated. All adverse events were recorded, along with concomitant medication use, with particular attention being paid to the use of anti-emetics.
The Intention to Treat (ITT) set of patients comprised all those who had been exposed to study medication at least once. This analysis set was the basis for the main efficacy and all safety and demographic analyses. Data were double entered using interactive verification into a CLINTRIAL database (Version 3.3.3, Phase Forward, Waltham, Mass., USA), and analysed using SAS (version 8.2, SAS Institute Inc., Cary, N.C., USA).

CN1CC[C@]23c4c5ccc(O)c4O[C@H]2[C@@H](O)C=C[C@H]3[C@H]1C5 [Morphine, morphine] was tested, and the pain-free time ([1]; during first 24 hours) was 9.0 to 10.9 h, the “patients with moderate to severe sedation” value ([1]; human, in vivo, intravenous) was 81.4% and the “patients with moderate to severe pain” value ([1]; time window 0 to 6 hours) was 54.2%. The “patients with moderate to severe pain” value ([1]; time window 6-24 hours) was 34.0%, the “patients with moderate to severe nausea” value ([1]; worst assessment) was 32.8% and the patients with vomiting ([1]; worst assessment) was 36.5%. For the same molecule, the “mean totals of PCA demands” value ([2]; 4-48 h) was 93.9, the “patients with sedation score recorded as severe” value ([2]; baseline) was 28.5% and the patients sedated ([2]; baseline (when given control of the PCA button)) was 88.0%. For the same molecule, the “mean totals of PCA demands” value ([2]; early post-operative period (up to 4 hours)) was 28.8 and the “dose required to achieve comfort initially” value ([2]; loading and recovery doses before PCA) was 14.4 mg/70 kg.
